Experimental data reported in patent US20140023611A1 (priority 2010, published 2014).
Blank lines part the entries; values can stand above or below the molecule they belong to.

How the values were obtained:
rat NaP2b (SLC34A2) = molecular target: T1, rat NaP2b (SLC34A2) (Rattus norvegicus, UniProt Q9JJ09); experiment: Inhibition of NaP2b-mediated Pi (33P) uptake in transfected HEK293 cells, rat NaP2b; assay type: cell-based; conditions: 33P Pi uptake, 0.1 mM phosphate, value given as pIC50 range
T1 construct: host or cells: HEK293
T1 sequence (Q9JJ09 1-695): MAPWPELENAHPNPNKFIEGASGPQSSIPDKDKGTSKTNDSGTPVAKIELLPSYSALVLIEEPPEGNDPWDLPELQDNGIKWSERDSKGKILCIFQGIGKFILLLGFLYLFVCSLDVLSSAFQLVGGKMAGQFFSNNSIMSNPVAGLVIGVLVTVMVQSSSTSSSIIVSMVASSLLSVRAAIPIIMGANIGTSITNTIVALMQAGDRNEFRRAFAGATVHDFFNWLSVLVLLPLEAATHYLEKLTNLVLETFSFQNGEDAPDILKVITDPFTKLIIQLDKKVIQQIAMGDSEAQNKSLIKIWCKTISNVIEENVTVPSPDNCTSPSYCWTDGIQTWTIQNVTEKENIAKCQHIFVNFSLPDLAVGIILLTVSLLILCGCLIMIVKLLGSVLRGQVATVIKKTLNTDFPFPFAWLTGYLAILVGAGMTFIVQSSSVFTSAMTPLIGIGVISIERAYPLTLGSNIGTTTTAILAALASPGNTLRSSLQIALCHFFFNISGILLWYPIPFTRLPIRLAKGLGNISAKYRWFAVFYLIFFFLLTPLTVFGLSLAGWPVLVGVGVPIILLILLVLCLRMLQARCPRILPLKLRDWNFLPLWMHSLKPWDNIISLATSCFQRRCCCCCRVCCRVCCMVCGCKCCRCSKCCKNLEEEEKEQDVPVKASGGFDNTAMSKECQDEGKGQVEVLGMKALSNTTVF
Summary of the method: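 HEK293 cells were transiently transfected with NaP2b cDNA using Lipofectamine and grown near confluence. Compounds were tested at twelve concentrations from 0.1 nM to 30 uM in duplicate, and 33P-phosphate uptake was counted by scintillation after lysis. Results are expressed as pIC50.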

human NaP2b (SLC34A2) = molecular target: T2, human NaP2b (SLC34A2) (Homo sapiens, UniProt O95436); experiment: Inhibition of NaP2b-mediated Pi (33P) uptake in transfected HEK293 cells, human NaP2b; assay type: cell-based; conditions: read-out: pIC50 range for human NaP2b (converted)
T2 construct: host or cells: HEK293
T2 sequence (O95436 1-690): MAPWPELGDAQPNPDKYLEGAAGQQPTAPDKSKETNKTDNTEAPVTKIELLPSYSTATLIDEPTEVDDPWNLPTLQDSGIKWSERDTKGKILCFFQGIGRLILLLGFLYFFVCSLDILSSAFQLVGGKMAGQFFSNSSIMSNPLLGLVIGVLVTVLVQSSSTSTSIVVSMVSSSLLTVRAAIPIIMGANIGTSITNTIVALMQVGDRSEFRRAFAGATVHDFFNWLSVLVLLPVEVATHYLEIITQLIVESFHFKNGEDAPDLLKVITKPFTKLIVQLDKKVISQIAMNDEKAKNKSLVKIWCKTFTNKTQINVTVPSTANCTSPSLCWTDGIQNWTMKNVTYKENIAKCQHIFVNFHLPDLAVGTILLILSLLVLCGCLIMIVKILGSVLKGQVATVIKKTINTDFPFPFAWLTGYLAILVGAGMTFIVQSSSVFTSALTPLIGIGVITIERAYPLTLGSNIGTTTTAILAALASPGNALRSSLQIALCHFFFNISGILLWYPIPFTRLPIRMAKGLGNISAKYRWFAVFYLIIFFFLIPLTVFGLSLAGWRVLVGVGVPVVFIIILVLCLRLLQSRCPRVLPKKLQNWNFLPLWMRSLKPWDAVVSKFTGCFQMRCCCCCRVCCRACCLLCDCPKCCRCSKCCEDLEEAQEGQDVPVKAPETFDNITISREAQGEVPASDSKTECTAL
Summary of the method: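 HEK293 cells transiently transfected with human NaP2b (Thr inserted after residue 37, N39D), endogenous PiT transport pharmacologically silenced. Sodium or choline buffer, pH 7.4, with 100 uM KH2PO4, 33P orthophosphate and compound (0.1 nM–30 uM, twelve concentrations, duplicate). 3-30 min at room temperature, scintillation counting, pIC50 derived.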

Structure (SMILES): CCN(CC)c1ccc(NC(=O)c2cccc(CCCOCCOCCOCCOCCC(=O)N3CCN(S(=O)(=O)C(C)C)CC3)c2)c(-c2cc(C(=O)NCc3cccc(C(F)(F)F)c3)ccn2)c1 [Example 292, 2-(5-(diethylamino)-2-(3-(16-(4-(isopropylsulfonyl)piperazin-1-yl)-16-oxo-4,7,10,13-tetraoxahexadecyl)benzamido)phenyl)-N-(3-(trifluoromethyl)benzyl)isonicotinamide]
IC50 (rat NaP2b (SLC34A2)): 1000 to 7940 nM | IC50 (human NaP2b (SLC34A2)): < 1000 nM

Structure (SMILES): CN(CCN1CCC[C@H]1C(=O)OC(C)(C)C)C(=O)c1cccc(C(=O)Nc2ccc(N3CCCCC3)cc2-c2cc(C(=O)N[C@H]3CCCc4ccccc43)ccn2)c1 [Example 187, (S)-tert-butyl 1-(2-(N-methyl-3-((4-(piperidin-1-yl)-2-(4-(((S)-1,2,3,4-tetrahydronaphthalen-1-yl)carbamoyl)pyridin-2-yl)phenyl)carbamoyl)benzamido)ethyl)pyrrolidine-2-carboxylate]
IC50 (rat NaP2b (SLC34A2)): < 1000 nM | IC50 (human NaP2b (SLC34A2)): 1000 to 7940 nM

Structure (SMILES): CN(CCN1CCOC[C@H]1C(=O)N(C)CCOCCOCCOCCC(=O)OC(C)(C)C)C(=O)c1cccc(C(=O)Nc2ccc(N3CCCCC3)cc2-c2cc(C(=O)N[C@H]3CCCc4ccccc43)ccn2)c1 [Example 242, tert-butyl 2-methyl-1-((S)-4-(2-(N-methyl-3-(4-(piperidin-1-yl)-2-(4-((S)-1,2,3,4-tetrahydronaphthalen-1-ylcarbamoyl)pyridin-2-yl)phenylcarbamoyl)benzamido)ethyl)morpholin-3-yl)-1-oxo-5,8,11-trioxa-2-azatetradecan-14-oate]
IC50 (rat NaP2b (SLC34A2)): < 1000 nM | IC50 (human NaP2b (SLC34A2)): < 1000 nM

Structure (SMILES): CN(CCN1CCOCC1)C(=O)c1cccc(C(=O)Nc2ccc(N3CCCCC3)cc2-c2cc(C(=O)NCc3ccc(C(C)(C)C)cc3)ccn2)c1 [Example 122, N1-(2-(4-((4-tert-butylbenzyl)carbamoyl)pyridin-2-yl)-4-(piperidin-1-yl)phenyl)-N3-methyl-N3-(2-morpholinoethyl)isophthalamide]
IC50 (rat NaP2b (SLC34A2)): 1000 to 7940 nM | IC50 (human NaP2b (SLC34A2)): 1000 to 7940 nM

The remaining lines, values ahead:

IC50 (rat NaP2b (SLC34A2)): 1000 to 7940 nM | IC50 (human NaP2b (SLC34A2)): 1000 to 7940 nM
Structure (SMILES): O=C(CCOCCOCCOCCOCCCc1cccc(C(=O)Nc2ccc(N3CCCCC3)cc2-c2cc(C(=O)NCc3cccc(C(F)(F)F)c3)ccn2)c1)NC(CO)(CO)CO [Example 278]

IC50 (rat NaP2b (SLC34A2)): < 1000 nM | IC50 (human NaP2b (SLC34A2)): < 1000 nM
Structure (SMILES): CCN(CC)c1ccc(NC(=O)c2cccc(CCCOCCOCCOCCOCCC(=O)O)c2)c(-c2cc(C(=O)N[C@H]3CCCc4ccccc43)ccn2)c1 [Example 302, (S)-16-(3-(4-(diethylamino)-2-(4-(1,2,3,4-tetrahydronaphthalen-1-ylcarbamoyl)pyridin-2-yl)phenylcarbamoyl)phenyl)-4,7,10,13-tetraoxahexadecan-1-oic acid]

IC50 (rat NaP2b (SLC34A2)): 10000 to 31600 nM | IC50 (human NaP2b (SLC34A2)): 10000 to 31600 nM
Structure (SMILES): CN(CCN1CCOC[C@H]1C(=O)N(C)CCOCCOCCOCCC(=O)O)C(=O)c1cccc(C(=O)Nc2ccc(N3CCCCC3)cc2-c2cc(C(=O)N[C@H]3CCCc4ccccc43)ccn2)c1 [Example 243, 2-methyl-1-((S)-4-(2-(N-methyl-3-(4-(piperidin-1-yl)-2-(4-((S)-1,2,3,4-tetrahydronaphthalen-1-ylcarbamoyl)pyridin-2-yl)phenylcarbamoyl)benzamido)ethyl)morpholin-3-yl)-1-oxo-5,8,11-trioxa-2-azatetradecan-14-oic acid]

IC50 (rat NaP2b (SLC34A2)): 1000 to 7940 nM | IC50 (human NaP2b (SLC34A2)): 1000 to 7940 nM
Structure (SMILES): O=C(NCc1cccc(C(F)(F)F)c1)c1ccnc(-c2cc(N3CCCCC3)ccc2NC(=O)c2cccc(CCCOCCOCCOCCOCCC(=O)N(CCO)CCO)c2)c1 [Example 277]

IC50 (rat NaP2b (SLC34A2)): < 1000 nM | IC50 (human NaP2b (SLC34A2)): < 1000 nM
Structure (SMILES): CN(CCN1CCCN(C(=O)OC(C)(C)C)CC1)C(=O)c1cccc(C(=O)Nc2ccc(N3CCCCC3)cc2-c2cc(C(=O)N[C@H]3CCCc4ccccc43)ccn2)c1 [Example 219, (S)-tert-butyl 4-(2-(N-methyl-3-(4-(piperidin-1-yl)-2-(4-(1,2,3,4-tetrahydronaphthalen-1-ylcarbamoyl)pyridin-2-yl)phenylcarbamoyl)benzamido)ethyl)-1,4-diazepane-1-carboxylate]
